How the values were obtained:
[1] = tested on: Primary Dorsal Root Ganglia (DRG) neurons; experiment: Neurite outgrowth assay in primary DRG neurons without NGF; format: cell-based, mouse; details: 500 nM every 48 h, 5 DIV, NGF-neutralizing antibody
Method: Primary Dorsal Root Ganglia (DRG) neurons were isolated from P0-P1 mouse pups (C57BL/6J, The Jackson Laboratory, Bar Harbor, ME, USA) as described previously and cultured with Neurobasal medium (21103049 Gibco, Grand Island, NY, USA) containing 2% B27 (17504044, Gibco, Grand Island, NY, USA), 100 ng/mL NGF (N-100, Alomone Labs, Jerusalem, Israel), 1X GlutaMax (35050061, Gibco, Grand Island, NY, USA), 10 mM HEPES (15630080, Gibco, Grand Island, NY, USA), 1% Penicillin/Streptomycin (15070063, Gibco, Grand Island, NY, USA) and 10 μM 5-Fluoro-2′-deoxyuridine (343333, Calbiochem, Darmstadt, Germany). For TUNEL assay, cells were cultured for 14 days in vitro and then the medium was deprived of NGF before adding ENT-A013 (500 nM, every 24 h) along with NGF-neutralizing antibody (N8773, 1:500, Sigma-Aldrich, St. Louis, MO, USA). Cells were then incubated for 48 h before being fixed with 4% PFA and labelled with TUNEL (11684795910, F. Hoffmann–La Roche Ltd., Basel, Switzerland) following the manufacturer’s protocol. Subsequently, cells were immunostained against Tuj1 (1:2000, 801201, Biolegend, Inc., San Diego, CA, USA) and anti-mouse Cy3 (1:1000, Invitrogen, A10521, Waltham, MA, USA) and imaged with a Leica SP8 confocal microscope. […] Cells were then imaged by confocal microscopy and neurite length was measured using Fiji software (NIH, Bethesda, Maryland, USA).

γ-secretase = γ-secretase activity / APP processing in U2OS APP-C99-tGFP cells; format: cell-based; details: 6 h
Method: PC12 and HEK293T cells were obtained from LGC Promochem GmbH (Teddington, UK) and cultured under the conditions specified by the manufacturer. NIH3T3 cells were stably transfected with human TrkB plasmid. PC12 cells were grown in DMEM medium (11965084, Gibco, Grand Island, NY, USA) containing 10% Horse Serum (16050122, Gibco, Grand Island, NY, USA), 5% Fetal Bovine Serum (10270106, Gibco, Grand Island, NY, USA), 100 units/mL Penicillin and 0.1 mg/mL Streptomycin (15140122, Gibco, Grand Island, NY, USA) at 5% CO2 and 37 °C. Cells were used between passages 5–20. HEK293T and NIH3T3 cells were grown in the same medium as PC12 cells supplemented with 10% Fetal Bovine Serum and lacking Horse Serum. For transient transfection of HEK293T cells, lipofectamine was used and cells were transfected with human p75^NTR and Traf6 plasmids. To determine the intracellular activity of endogenous secretases, we tagged (tGFP) a truncated mutant (Tm) of APP containing the original amino acids sequence from M516 to N773. This Tm conserves the secretases cleavage sites, clathrin binding site, tau protein binding site, collagen binding site and some glycosylation sites critical for protein localization and intracellular trafficking. The cDNA of the TmAPP gene was amplified by PCR and subcloned into pturbo-GFP vector. The construction was transfected into U2OS cells (ATCC Cat Number HTB-96) using Lipofectamine LTX (Thermo Fisher Scientific, Waltham, MA, USA). After 48 h, individual cells were plated in MTP96 plates using F.SIGHT (CYTENA GmbH, Freiburg, Germany), and cultured in complete medium containing 250 μg/mL G418 for selection. The selection medium was changed every two to three days. The cells were allowed to grow for 3 to 4 weeks, after which clones were isolated for further analysis. Resistant clones were checked by RT-PCR and epifluorescence microscopy.
The Alzheimer’s Disease (AD) phenotype is partly attributed to the toxic effects caused by oligmeric Aβ, which results in reduced neuronal trophic support, caused by deregulation of neurotrophic signaling. It is therefore reasonable that a small molecule that can selectively activate TrkA signaling and promote neuronal survival could alleviate the detrimental effects caused by toxic Aβ oligomers, especially during the early phases of the disease or modulate APP misprocessing and therefore reduce the production of the toxic Aβ. The U2OS stably expressing APP-C99-tGFP cell line was used in order to monitor γ-secretase activity, the process responsible for Aβ production from APP. The assay achieves this by measuring the levels of fluorescent APP-C99 construct produced by β-secretase activity. When γ-secretase is active, the construct is cleaved, leading to Aβ production. […] Therefore, higher fluorescence levels correspond to decreased γ-secretase activity and Aβ aggregate formation by extension. […] In addition, in order to investigate whether ENT-A013 can protect cells against Aβ-induced toxicity we isolated neurons from the hippocampus of E17.5 mouse embryos, a brain area that is heavily affected in AD. Neurons were left in culture for 16–18 DIV and then were treated with oligomeric Aβ and ENT-A013 for 48 h. Subsequently, cells were fixed and cell death was assessed using TUNEL assay.
(A,B) Primary hippocampal neurons were treated for 48 h with oligomeric Aβ in the presence of ENT-A013 and TUNEL assay was used to quantify cell death. Representative images from 3 independent experiments. Data are shown as ±SEM. One-way ANOVA, Tukey’s Test correction: ** p < 0.01; *** p < 0.001. (C) Aggregate formation on untreated cells, treated with DAPT inhibitor of γ-secretase or with compound ENT-A013. […] Aggregate formation was quantified with a BD Pathway 855 High-Content Bioimager and Attonvision software.

[2] = tested on: HEK cells transfected with p75NTR; experiment: CellTox assay in serum-starved HEK cells transfected with p75NTR; format: cell-based; details: 500 nM, 24hrs
Method: (A) HEK cells transfected with p75NTR and Traf6 were treated with ENT-A013 (500nM) or NGF (100ng/ml) for 30’ and then were subjected to immunoprecipitation experiments against p75.
(C) HEK cells transfected with p75NTR were starved from serum and treated with ENT-A013 (500nM) or NGF (100ng/ml) for 24hrs and subsequently subjected to CellTox assay. […]
difference between ENT-A013 treated group and negative control (Serum Free).
(1 picture or pasted object on this page, not shown here)

`CC12CCC(O)CC1=CCC1C2CCC2(C)C1CCC21CC1C=CBr` [ENT-A013, (2′R,3S,17S)-2′-(2-Bromovinyl)-5-Androstene-17,1′-Cyclopropan-3-ol] was tested. Which “axonal / neurite length (in words)” value [1] did it give?
The value was “this difference was not significant”.

What about the “increase in APP spot levels compared to DAPT” value (“increase in APP spot levels” for short) (γ-secretase; 10 μM) of the same compound?
Its value is 166.3%.

What about the “increase in APP spot levels” value (γ-secretase; 30 μM) of the same compound?
The value was 246.4%.

And the “increase in APP spot levels” value (γ-secretase; 100 μM)?
The value was 243.9%.

What about the “increase in APP spot levels” value (γ-secretase; 300 μM) of the same compound?
The value was 239.9%.

And the IC50 (γ-secretase; Homo sapiens, U2OS, 100 nM to 300 μM, read-out: IC50 (γ-secretase activity, aggregate formation))?
Its IC50 is 93 µM.

And the “cell death vs negative control (Serum Free) (in words)” value [2]?
The value was “no significant”.
